Measurements from patent US6423699B1, “Combination therapies using benzimidazolones” (American Home Products Corporation, priority 1999, dated 2002).
Where “and” joins values, the source holds several entries; their conditions need not be identical. Equal entries are not always repeated.

Tested on: rat uterine decidualization
Assay: Rat decidualization assay
Assay type: in vivo
Conditions: decidual response; for Estimated EC50 (mg/kg s.c.), individual studies: ovariectomized rats, uterine wet weight; for Estimated average EC50 (mg/kg s.c.): average over dose-response curves
Procedure: 2. Rat Decidualization Assay
b. Animals (RACUC protocol #5002)
The animals are treated once daily for seven days.
Uteri are removed and trimmed of fat.
Body weight: Mean total animal body weight (default-kg)
Decidual response: [(D−C)/C]×100%

Compound	Estimated EC50 (mg/kg s.c.), individual studies	Estimated average EC50 (mg/kg s.c.)
CC(=O)O[C@]1(C(C)=O)CC[C@H]2[C@@H]3C[C@H](C)C4=CC(=O)CC[C@]4(C)[C@H]3CC[C@@]21C [MPA, medroxyprogesterone acetate]	0.42 mg/kg s.c. and 0.39 mg/kg s.c. (2×)	
C#C[C@]1(O)CC[C@H]2[C@@H]3CCC4=CC(=O)CC[C@@H]4[C@H]3C(=C)C[C@@]21CC [3-Ketodesogestrel]	0.10 mg/kg s.c. and 0.06 mg/kg s.c. and 0.11 mg/kg s.c.	0.10
CC(=O)[C@H]1CC[C@H]2[C@@H]3CCC4=CC(=O)CC[C@]4(C)[C@H]3CC[C@]12C [Progesterone]	5.50 mg/kg s.c.	5.62
C#C[C@]1(O)CC[C@H]2[C@@H]3CCC4=CC(=O)CC[C@@H]4[C@H]3CC[C@@]21CC [Levonorgestrel]	0.08 mg/kg s.c. and 0.12 mg/kg s.c. and 0.09 mg/kg s.c. (2×)	0.10
